According to PubChem BioAssay AID2060899 (Molecular Pharmacology Branch, DTP, NCI, 2025):

Test system: 565726-208-R1-J5-PDC complex spheroids, growth inhibition
Experiment: Anticancer human tumor 565726-208-R1-J5-PDC patient-derived pancreatic adenocarcinoma cell line growth inhibition [RAS]
Details: for viability, T/C: stronger effect = lower value
Procedure, shortened: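 Multi-cell-type spheroids: tumor cells plus HUVEC endothelial cells and mesenchymal stem cells. RAS-pathway inhibitors were combined with targeted agents, each dosed in half-log steps down from clinical Cmax, or from 10 microM when Cmax was unknown.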

[1] = curve of first compound, second compound 0.0316 µM
[2] = curve of first compound, second compound 0.1 µM
[3] = curve of first compound, second compound 0.316 µM
[4] = curve of first compound, second compound 1 µM
[5] = second compound 0.0316 µM, first compound 0.0316 µM
[6] = second compound 0.0316 µM, first compound 0.1 µM
[7] = second compound 0.0316 µM, first compound 0.316 µM
[8] = second compound 0.0316 µM, first compound 1 µM
[9] = second compound 0.0316 µM, first compound 3.16 µM
[10] = second compound 0.0316 µM, first compound 10 µM
[11] = second compound 0.1 µM, first compound 0.0316 µM
[12] = second compound 0.1 µM, first compound 0.1 µM
[13] = second compound 0.1 µM, first compound 0.316 µM
[14] = second compound 0.1 µM, first compound 1 µM
[15] = second compound 0.1 µM, first compound 3.16 µM
[16] = second compound 0.1 µM, first compound 10 µM
[17] = second compound 0.316 µM, first compound 0.0316 µM
[18] = second compound 0.316 µM, first compound 0.1 µM
[19] = second compound 0.316 µM, first compound 0.316 µM
[20] = second compound 0.316 µM, first compound 1 µM
[21] = second compound 0.316 µM, first compound 3.16 µM
[22] = second compound 0.316 µM, first compound 10 µM
[23] = second compound 1 µM, first compound 0.0316 µM
[24] = second compound 1 µM, first compound 0.1 µM
[25] = second compound 1 µM, first compound 0.316 µM
[26] = second compound 1 µM, first compound 1 µM
[27] = second compound 1 µM, first compound 3.16 µM
[28] = second compound 1 µM, first compound 10 µM
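Further: spheroids exposed to compounds for seven days before readout.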
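Wherever viability, T/C is given: 100% = DMSO vehicle control viability.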

**Q.** Which results are given for `CC1(O)CCCC1n1c(=O)c(C(F)F)cc2cnc(NC3CCN(S(C)(=O)=O)CC3)nc21` (stereo not given) + C#Cc1c(F)ccc2cc(O)cc(-c3ncc4c(N5CC6CCC(C5)N6)nc(OCC56CCCN5CC(F)C6)nc4c3F)c12?
**A.** IC50 [1]: 3.32 µM; IC50 [2]: 3.29 µM; IC50 [3]: 3.9 µM; IC50 [4]: 1.54 µM; IC50 (curve of first compound, second compound 3.16 µM): 1.14 µM; IC50 (curve of first compound, second compound 10 µM): 0.606 µM; viability, T/C [5]: 82.3%; viability, T/C [6]: 87.4%; viability, T/C [7]: 76.7%; viability, T/C [8]: 56.2%; viability, T/C [9]: 62.2%; viability, T/C [10]: 5.34%; viability, T/C [11]: 93.8%; viability, T/C [12]: 103%; viability, T/C [13]: 69.9%; viability, T/C [14]: 65.9%; viability, T/C [15]: 63.7%; viability, T/C [16]: 4.76%; viability, T/C [17]: 91.6%; viability, T/C [18]: 95%; viability, T/C [19]: 75.6%; viability, T/C [20]: 66.2%; viability, T/C [21]: 69%; viability, T/C [22]: 5.83%; viability, T/C [23]: 96%; viability, T/C [24]: 93.9%; viability, T/C [25]: 59.7%; viability, T/C [26]: 55%; viability, T/C [27]: 50.9%; viability, T/C [28]: 5.01%; viability, T/C (second compound 3.16 µM, first compound 0.0316 µM): 88.4%; viability, T/C (second compound 3.16 µM, first compound 0.1 µM): 81.7%; viability, T/C (second compound 3.16 µM, first compound 0.316 µM): 55.6%; viability, T/C (second compound 3.16 µM, first compound 1 µM): 50%; viability, T/C (second compound 3.16 µM, first compound 3.16 µM): 46.4%; viability, T/C (second compound 3.16 µM, first compound 10 µM): 2.99%; viability, T/C (second compound 10 µM, first compound 0.0316 µM): 78.8%; viability, T/C (second compound 10 µM, first compound 0.1 µM): 67.1%; viability, T/C (second compound 10 µM, first compound 0.316 µM): 53.1%; viability, T/C (second compound 10 µM, first compound 1 µM): 43.9%; viability, T/C (second compound 10 µM, first compound 3.16 µM): 32.4%; viability, T/C (second compound 10 µM, first compound 10 µM): 0.3%

**Q.** Which results are given for `CCc1c2c(nc3ccc(O)cc13)-c1cc3c(c(=O)n1C2)COC(=O)[C@]3(O)CC`?
**A.** viability, T/C (compound 0.000949 µM): 77.2% [middle of 4 runs]; viability, T/C (compound 0.00949 µM): 34.4% [middle of 4 runs]; viability, T/C (compound 0.03 µM): 19.3% [middle of 4 runs]; viability, T/C (compound 0.0949 µM): 12.7% [middle of 4 runs]; viability, T/C (compound 0.3 µM): 7.31% [middle of 4 runs]; IC50 (curve of compound): 2.78 nM [middle of 4 runs]

**Q.** Which results are given for `CC(=O)OC12COC1CC(O)C1(C)C(=O)C(O)C3=C(C)C(OC(=O)C(O)C(NC(=O)OC(C)(C)C)c4ccccc4)CC(O)(C(OC(=O)c4ccccc4)C21)C3(C)C` (stereo not given) + C=CC(=O)N1CCN(c2nc(OCC3CCCN3C)nc3c(F)c(-c4nc(N)cc(C)c4C(F)(F)F)c(Cl)cc23)C(C)C1?
**A.** IC50 (curve of first compound, second compound 0.00316 µM): < 0.0316 µM; IC50 (curve of first compound, second compound 0.01 µM): < 0.0316 µM; IC50 [1]: < 0.0316 µM; IC50 [2]: < 0.0316 µM; IC50 [3]: < 0.0316 µM; IC50 [4]: < 0.0316 µM; viability, T/C (second compound 0.00316 µM, first compound 0.0316 µM): 22.4%; viability, T/C (second compound 0.00316 µM, first compound 0.1 µM): 20.6%; viability, T/C (second compound 0.00316 µM, first compound 0.316 µM): 22.6%; viability, T/C (second compound 0.00316 µM, first compound 1 µM): 19.4%; viability, T/C (second compound 0.00316 µM, first compound 3.16 µM): 30%; viability, T/C (second compound 0.00316 µM, first compound 10 µM): 37.1%; viability, T/C (second compound 0.01 µM, first compound 0.0316 µM): 25%; viability, T/C (second compound 0.01 µM, first compound 0.1 µM): 21.8%; viability, T/C (second compound 0.01 µM, first compound 0.316 µM): 21.1%; viability, T/C (second compound 0.01 µM, first compound 1 µM): 23.5%; viability, T/C (second compound 0.01 µM, first compound 3.16 µM): 32.6%; viability, T/C (second compound 0.01 µM, first compound 10 µM): 47.7%; viability, T/C [5]: 31.6%; viability, T/C [6]: 26.6%; viability, T/C [7]: 24.9%; viability, T/C [8]: 21%; viability, T/C [9]: 29.5%; viability, T/C [10]: 44.8%; viability, T/C [11]: 26%; viability, T/C [12]: 23%; viability, T/C [13]: 26%; viability, T/C [14]: 19%; viability, T/C [15]: 27.7%; viability, T/C [16]: 42.8%; viability, T/C [17]: 21.1%; viability, T/C [18]: 26.6%; viability, T/C [19]: 22.4%; viability, T/C [20]: 24.9%; viability, T/C [21]: 28%; viability, T/C [22]: 45.9%; viability, T/C [23]: 34.8%; viability, T/C [24]: 24.1%; viability, T/C [25]: 22.1%; viability, T/C [26]: 26.4%; viability, T/C [27]: 34.4%; viability, T/C [28]: 50.1%
